Measurements published in patent US9421263B2, “Antimicrobial compositions containing synergistic combinations of quaternary ammonium compounds and essential oils and/or constituents thereof” (THE TRUSTEES OF COLUMBIA UNIVERSITY IN THE CITY OF NEW YORK, priority 2003, dated 2016).

Key:
S. aureus = experiment: Evaluation of rapid antimicrobial activity in presence of serum (S. aureus); assay type: cell-based; details: for synergy in combination with farnesol, in words: Example 3, Table 3, rapid serum-based assay; for log10 reduction, With zinc salts / cfu/ml, With zinc salts / log10 reduction, Without zinc salts / cfu/ml, Without zinc salts: Table 2; for log10 reduction, With zinc salts / cfu/ml, With zinc salts: Base #1 with zinc salts; for log10 reduction, With zinc salts / cfu/ml, With zinc salts / log10 reduction, Without zinc salts / cfu/ml, Without zinc salts / cfu/ml / log10 reduction / log10 reduction, S. aureus / cfu/ml, S. aureus / Log10 reduction: serum; for log10 reduction, With zinc salts / cfu/ml, With zinc salts / log10 reduction, Without zinc salts / cfu/ml, Without zinc salts / cfu/ml / log10 reduction / log10 reduction, S. aureus / cfu/ml, S. aureus / Log10 reduction / CFU/mL: 15 seconds; for cfu/ml, With zinc salts / cfu/ml: control gel 1.4 × 10^7; for log10 reduction, Without zinc salts / cfu/ml, Without zinc salts: Base #2 without zinc salts; for cfu/ml, Without zinc salts: control gel 4.1 × 10^7; for cfu/ml / log10 reduction: Table 3, groups in gel Base #2 (% w/w); for log10 reduction, S. aureus / cfu/ml, S. aureus: Base #2; for synergy of the combination, in words: Example 1, Table 1, Base #1; for Log10 reduction / CFU/mL: Table 1, BZK 0.12%, CHG 0.05%, TC 0.3%, ZP 0.5%, F/LO/LI/CI 0.3%; for Log10 reduction: Base #1 (zinc salts), versus Control (Base); for CFU/mL: agents in alcohol based zinc gel Base #1, bovine adult serum, control 3.4 × 10^7
Method: Evaluation of Rapid Antimicrobial Activity in Presence of Serum.
To determine the efficacy of the antimicrobial composition on the skin, which may be contaminated with blood or other proteinaceous fluids containing bacteria, the antimicrobial activity was evaluated in the presence of serum as follows. Briefly, 0.5 ml of 10^8 CFU of S. aureus/ml was added to 0.5 ml of bovine adult serum in a sterile culture tube and mixed. 0.5 ml of the test formulation was added to each tube and vortexed. After 15 seconds, it was further diluted 1:100 with drug inactivating media (LTSB) and 0.5 ml was plated on a TSA plate. The plates were incubated at 37° C. for 24 hours and the colony count per ml of culture was determined.

E. coli = experiment: Rapid antimicrobial activity assay in presence of serum (E. coli); assay type: cell-based
[1] = cited from earlier work
[2] = Table 4, BZK 0.12% w/w, BZT 0.18% w/w, all other EO/IC 0.5% w/w
[3] = Table 4, BZK 0.12% w/w, BZT 0.18% w/w, all other EO/IC 0.5% w/w, control 1.4 × 10^7
[4] = Table 6, Gel Base #1, ingredients % w/w, control base 3.4 × 10^7 cfu/ml
[5] = Table 7, ingredients in gram millimoles per 100 g Gel, control base 6.4 × 10^7 cfu/ml
[6] = Table 4, Base #2, BZK 0.12% w/w, BZT 0.18% w/w, all other EO/IC 0.5% w/w, 15 seconds
[7] = Table 4, Base #2, BZK 0.12% w/w, BZT 0.18% w/w, all other EO/IC 0.5% w/w, 15 seconds, control 2.6 × 10^7
[8] = Table 5, Base #2, 15 seconds, gel base 2.6 × 10^7
[9] = Example 6, Table 7, molar proportions

With `CC(C)(C)CC(C)(C)c1ccc(OCCOCC[N+](C)(C)Cc2ccccc2)cc1` [BZT, benzethonium chloride] the “synergy in combination with farnesol, in words” value (S. aureus) was “synergistic antimicrobial activity when used in combination with farnesol”, the “log10 reduction, With zinc salts” value (S. aureus) was 1.6 log10 and the “cfu/ml, With zinc salts” value (S. aureus) was 3.3 × 10^5 cfu/ml. For the same molecule, the “log10 reduction, Without zinc salts” value (S. aureus) was 1.7 log10, the “cfu/ml, Without zinc salts” value (S. aureus) was 7.5 × 10^5 cfu/ml and the cfu/ml (S. aureus; listed as BZT (0.06%)) was 5.7 × 10^5 cfu/ml. The cfu/ml (S. aureus; listed as BZT (0.12%)) was 4.7 × 10^5 cfu/ml, the cfu/ml (S. aureus; listed as BZT (0.18%)) was 3.3 × 10^5 cfu/ml and the log10 reduction (S. aureus; listed as BZT (0.06%)) was 1.4 log10. For the same molecule, the log10 reduction (S. aureus; listed as BZT (0.12%)) was 1.5 log10, the log10 reduction (S. aureus; listed as BZT (0.18%)) was 1.6 log10 and the “log10 reduction, S. aureus” value (S. aureus; [2]) was 1.4 log10. For the same molecule, the “cfu/ml, S. aureus” value (S. aureus; [3]) was 5.3 × 10^5 cfu/ml, the “log10 reduction, S. aureus” value (S. aureus; Table 5) was 1.4 log10 and the “cfu/ml, S. aureus” value (S. aureus; Table 5, gel base 1.4 × 10^7) was 5.3 × 10^5 cfu/ml. For the same molecule, the “log10 reduction in colony count from the control” value (“log10 reduction in colony count” below) (S. aureus; [4]) was 1.6 log10, the “log10 reduction in colony count” value (S. aureus; [5]) was 1.9 log10 and the “log10 reduction, E. coli” value (E. coli; [6]) was 1.8 log10. For the same molecule, the “cfu/ml, E. coli” value (E. coli; [7]) was 4.3 × 10^5 cfu/ml, the “log10 reduction, E. coli” value (E. coli; Table 5, Base #2, 15 seconds) was 1.8 log10 and the “cfu/ml, E. coli” value (E. coli; [8]) was 4.3 × 10^5 cfu/ml.
With `N=C(NCCCCCCNC(=N)NC(=N)Nc1ccc(Cl)cc1)NC(=N)Nc1ccc(Cl)cc1.O=C(O)[C@H](O)[C@@H](O)[C@H](O)[C@H](O)CO.O=C(O)[C@H](O)[C@@H](O)[C@H](O)[C@H](O)CO` [CHG, chlorhexidine gluconate] the “synergy of the combination, in words” value (S. aureus) was “No such synergism was observed when farnesol was combined”, the Log10 reduction (S. aureus) was 1.7 log10 and the CFU/mL (S. aureus) was 6.6 × 10^5 CFU/mL. For the same molecule, the “log10 reduction, S. aureus” value (S. aureus; Table 5) was 1.3 log10, the “cfu/ml, S. aureus” value (S. aureus; Table 5, gel base 1.4 × 10^7) was 6.6 × 10^5 cfu/ml and the “log10 reduction in colony count” value (S. aureus; [4]) was 1.7 log10. The “log10 reduction in colony count” value (S. aureus; [5]) was 1.9 log10, the “log10 reduction, E. coli” value (E. coli; Table 5, Base #2, 15 seconds) was 1.7 log10 and the “cfu/ml, E. coli” value (E. coli; [8]) was 4.8 × 10^5 cfu/ml.
For `CC(C)=CCCC(C)=CC=O` [CI, Citral], the “synergy of the combination, in words” value (S. aureus) was “synergistic antimicrobial effects when combined with BZK”, the Log10 reduction (S. aureus) was 1.3 log10 and the CFU/mL (S. aureus) was 1.5 × 10^6 CFU/mL.
For `CC(C)=CCCC(C)=CCCC(C)=CCO` [F, Farnesol], the “synergy of the combination, in words” value (S. aureus) was “synergistic antimicrobial effects when combined with BZK”, the Log10 reduction (S. aureus) was 0.6 log10 and the CFU/mL (S. aureus) was 8.4 × 10^6 CFU/mL. For the same molecule, the “log10 reduction, With zinc salts” value (S. aureus) was 1.5 log10, the “cfu/ml, With zinc salts” value (S. aureus) was 4.5 × 10^5 cfu/ml and the “log10 reduction, Without zinc salts” value (S. aureus) was 1.7 log10. For the same molecule, the “cfu/ml, Without zinc salts” value (S. aureus) was 8.9 × 10^5 cfu/ml, the log10 reduction (S. aureus) was 1.5 log10 and the cfu/ml (S. aureus; listed as Farnesol (0.3%)) was 4.6 × 10^5 cfu/ml. For the same molecule, the cfu/ml (S. aureus; listed as Farnesol (0.5%)) was 4.5 × 10^5 cfu/ml, the “log10 reduction, S. aureus” value (S. aureus; [2]) was 1.5 log10 and the “cfu/ml, S. aureus” value (S. aureus; [3]) was 4.5 × 10^5 cfu/ml. The “log10 reduction, S. aureus” value (S. aureus; Table 5) was 1.5 log10, the “cfu/ml, S. aureus” value (S. aureus; Table 5, gel base 1.4 × 10^7) was 4.5 × 10^5 cfu/ml and the “log10 reduction in colony count” value (S. aureus; [4]) was 0.6 log10. The “log10 reduction in colony count” value (S. aureus; [5]) was 1.8 log10, the “log10 reduction, E. coli” value (E. coli; [6]) was 1.8 log10 and the “cfu/ml, E. coli” value (E. coli; [7]) was 4.3 × 10^5 cfu/ml. For the same molecule, the “log10 reduction, E. coli” value (E. coli; Table 5, Base #2, 15 seconds) was 1.8 log10 and the “cfu/ml, E. coli” value (E. coli; [8]) was 4.3 × 10^5 cfu/ml.
With `C=CC(C)(O)CCC=C(C)C` (stereo not shown) [LI, Linalool] the “synergy of the combination, in words” value (S. aureus) was “synergistic antimicrobial effects when combined with BZK”, the Log10 reduction (S. aureus) was 1.3 log10 and the CFU/mL (S. aureus) was 1.5 × 10^6 CFU/mL.
In the case of `Oc1cc(Cl)ccc1Oc1ccc(Cl)cc1Cl` [TC, triclosan], the “synergy of the combination, in words” value (S. aureus) is reported as “No such synergism was observed when farnesol was combined”, the “whether farnesol shows synergy with or enhances the antimicrobial agent, in words” value (“whether farnesol shows synergy” for short) (S. aureus; Example 6, Table 6, % w/w) is reported as “does not show any synergy” and the “whether farnesol shows synergy” value (S. aureus; [9]) is reported as “but not with triclosan”. For the same molecule, the Log10 reduction (S. aureus) was 1.3 log10, the CFU/mL (S. aureus) was 1.5 × 10^6 CFU/mL and the “log10 reduction in colony count” value (S. aureus; [4]) was 1.3 log10. For the same molecule, the “log10 reduction in colony count” value (S. aureus; [5]) was 1.3 log10.
For “Polyhexamethylenebiguanide hydrochloride [PHMB]”, the “effect of added biguanide on the combination of BZT and farnesol, in words” value (S. aureus; Example 5, Table 5 (S. aureus and E. coli)) was “appears to enhance the activity of the combination of BZT and farnesol”, the “whether farnesol shows synergy” value (S. aureus; Example 6, Table 6, % w/w) was “enhances the activity” and the “whether farnesol shows synergy” value (S. aureus; [9]) was “appears to enhance the activity of farnesol”. For the same molecule, the “log10 reduction, S. aureus” value (S. aureus; Table 5) was 2.9 log10, the “cfu/ml, S. aureus” value (S. aureus; Table 5, gel base 1.4 × 10^7) was 4.3 × 10^4 cfu/ml and the “log10 reduction in colony count” value (S. aureus; [4]) was 2.9 log10. For the same molecule, the “log10 reduction in colony count” value (S. aureus; [5]) was 2.1 log10, the “log10 reduction, E. coli” value (E. coli; Table 5, Base #2, 15 seconds) was 1.6 log10 and the “cfu/ml, E. coli” value (E. coli; [8]) was 6.0 × 10^5 cfu/ml.
With benzalkonium chloride [BZK] the “synergy of the combination, in words” value (S. aureus) was “significant synergistic activity in combination with EOs and ICs”, the “synergy in combination with farnesol, in words” value (S. aureus) was “synergistic antimicrobial activity when used in combination with farnesol” and the “whether farnesol shows synergy” value (S. aureus; Example 6, Table 6, % w/w) was “shows synergy”. The Log10 reduction (S. aureus) was 1.8 log10, the CFU/mL (S. aureus) was 5.4 × 10^5 CFU/mL and the cfu/ml (S. aureus; listed as BZK (0.06%)) was 1.8 × 10^6 cfu/ml. For the same molecule, the cfu/ml (S. aureus; listed as BZK (0.12%)) was 5.4 × 10^5 cfu/ml, the log10 reduction (S. aureus; listed as BZK (0.06%)) was 0.9 log10 and the log10 reduction (S. aureus; listed as BZK (0.12%)) was 1.4 log10. For the same molecule, the “log10 reduction, S. aureus” value (S. aureus; [2]) was 1.6 log10, the “cfu/ml, S. aureus” value (S. aureus; [3]) was 3.3 × 10^5 cfu/ml and the “log10 reduction in colony count” value (S. aureus; [4]) was 1.8 log10. The “log10 reduction, E. coli” value (E. coli; [6]) was 1.6 log10 and the “cfu/ml, E. coli” value (E. coli; [7]) was 5.8 × 10^5 cfu/ml.
In the case of zinc glycerate, the “water solubility, in words” value [1] is listed as “moderately water soluble”.
In the case of zinc picolinate, the “water solubility, in words” value [1] is given as “moderately water soluble”.
For zinc pyrithione [ZP], the “synergy of the combination, in words” value (S. aureus) was “No such synergism was observed when farnesol was combined”, the Log10 reduction (S. aureus) was 1.4 log10 and the CFU/mL (S. aureus) was 1.4 × 10^6 CFU/mL.
